This is an account of results in patent US11702427B2 (priority 2018, dated 2023).

SMILES strings stand for the structures.

For orientation: EC50 means the concentration needed to bring the measured effect to its halfway point.

The test system of one test is HBsAg. Kind of test: HBsAg assay: inhibition of HBsAg in HepG2.2.15 cells (CLIA immunoassay of supernatant). The format is cell-based, hepatitis B virus (HBV). To be noted: Hepatitis B virus, HepG2.2.15, 144 h, read-out: sAg EC50, HepG2.2.15 cells; supernatant collected at day 6 after exposure; HBsAg chemiluminescence immunoassay. How it is done:
Inhibition of HBsAg was determined in HepG2.2.15 cells. Cells were maintained in culture medium containing 10% fetal calf serum, […], Glutamine, penicillin/streptomycin. Cells were seeded in 96-well collagen-coated plate at a density of 30,000 cells/well. Serially diluted compounds were added to cells next day at the final DMSO concentration of 0.5%. Cells were incubated with compounds for 2-3 days, after which medium was removed. Fresh medium containing compounds was added to cells for additional 3-4 days. At day 6 after exposure of compounds, supernatant was collected, the HBsAg immunoassay (microplate-based chemiluminescence immunoassay kits, CLIA, Autobio Diagnosics Co., Zhengzhou, China, Catalog #CL0310-2) was used to determine the level of HBsAg according to manufactory instruction. Dose-response curves were generated and the EC50 value (effective concentrations that achieved 50% inhibitory effect) were determined using XLfit software. In addition, cells can be seeded at a density of 5,000 cells/well for determination of cell viability in the presence and absence of compounds by using CellTiter-Glo reagent (Promega). Tables 1-3 show EC50 values obtained by the HBsAg assay for selected compounds.
`COCCCOc1cc2c(cc1OC)-c1[nH]c(=O)c(C(=O)O)c(O)c1C(C)(C(C)C)C2` (centres unmarked) [Example 30, 4-Hydroxy-5-isopropyl-9-methoxy-8-(3-methoxypropoxy)-5-methyl-2-oxo-1,2,5,6-tetrahydrobenzo[h]quinoline-3-carboxylic acid]: the EC50 is 58 nM.

On to `COCCCOc1cc2c(nc1OCC(F)F)-c1[nH]c(=O)c(C(=O)O)c(O)c1C(C(C)C)C2` (centres unmarked) [Example 42, 9-(2,2-Difluoroethoxy)-4-hydroxy-5-isopropyl-8-(3-methoxypropoxy)-2-oxo-1,2,5,6-tetrahydro-10-phenanthroline-3-carboxylic acid], for which the EC50 was found to be 12 nM.

For `CCOc1c2c([nH]c(=O)c1C(=O)O)-c1cc(OC)c(OCCCOC)cc1CC2C(C)C` (centres unmarked) [Example 91, 4-Ethoxy-5-isopropyl-9-methoxy-8-(3-methoxypropoxy)-2-oxo-1,2,5,6-tetrahydrobenzo[h]quinoline-3-carboxylicacid], the EC50 stood at 1700 nM.

Take `COCCCOc1cc2c(nc1OC)-c1[nH]c(=O)c(C(=O)O)cc1C(C(C)(C)C)C2` (centres unmarked) [Example 46, 5-(tert-Butyl)-9-methoxy-8-(3-methoxypropoxy)-2-oxo-1,2,5,6-tetrahydro-1,10-phenanthroline-3-carboxylicacid]: the EC50 is 1 nM.

`COCCCOc1cc2c(cc1Cl)-c1[nH]c(=O)c(C(=O)O)c(O)c1[C@H](C(C)C)CO2` [Example 70, (S)-10-Chloro-4-hydroxy-5-isopropyl-9-(3-methoxypropoxy)-2-oxo-1,2,5,6-tetrahydrobenzo[2,3]oxepino[4,5-b]pyridine-3-carboxylic acid]: the EC50 came out at 120 nM.

As for `COCCCOc1cc2c(nc1OC)-c1[nH]c(=O)c(C(=O)N(C)C)c(O)c1C(C(C)(C)C)C2` (centres unmarked) [Example 64], the EC50 turned out to be 2000 nM.

Consider `COCCCOc1cc2c(nc1OC)-c1[nH]c(=O)c(C(=O)NO)c(O)c1C(C(C)(C)C)C2` (centres unmarked) [Example 65, 5-(tert-Butyl)-N,4-dihydroxy-9-methoxy-8-(3-methoxypropoxy)-2-oxo-1,2,5,6-tetrahydro-1,10-phenanthroline-3-carboxamide], for which the EC50 was determined as 2 nM.

As to `COCCCOc1cc2c(cc1OC)-c1[nH]c(=O)c(C(=O)O)cc1C(C)(C(C)C)C2` (centres unmarked) [Example 6, 5-Isopropyl-9-methoxy-8-(3-methoxypropoxy)-5-methyl-2-oxo-1,6-dihydrobenzo[h]quinoline-3-carboxylic acid], the EC50 is 44 nM.

Consider `COCCCOc1cc2c(cc1OC)-c1nc(Cl)c(C(=O)O)c(O)c1C(C(C)C)C2` (centres unmarked) [Example 19, 2-Chloro-4-hydroxy-5-isopropyl-9-methoxy-8-(3-methoxypropoxy)-5,6-dihydrobenzo[h]quinoline-3-carboxylicacid], for which the EC50 was 8000 nM.

On to `COCCCOc1cc2c(cc1COC)-c1[nH]c(=O)c(C(=O)O)c(O)c1[C@H](C(C)C)CO2` [Example 71, (S)-4-Hydroxy-5-isopropyl-10-(methoxymethyl)-9-(3-methoxypropoxy)-2-oxo-1,2,5,6-tetrahydrobenzo[2,3]oxepino[4,5-b]pyridine-3-carboxylicacid], for which the EC50 worked out at 280 nM.

For `COCCCOc1cc2c(cc1OC)-c1nc(OC)c(C(=O)O)cc1C(C(C)C)C2` (centres unmarked) [Example 12, 5-Isopropyl-2,9-dimethoxy-8-(3-methoxypropoxy)-5,6-dihydrobenzo[h]quinoline-3-carboxylicacid], the EC50 was 1200 nM.

On to `COCCCOc1cc2c(cc1OC)-c1[nH]c(=O)c(-c3ncn[nH]3)c(O)c1C(C(C)C)C2` (centres unmarked) [Example 57, 4-Hydroxy-5-isopropyl-9-methoxy-8-(3-methoxypropoxy)-3-(1H-1,2,4-triazol-5-yl)-5,6-dihydrobenzo[h]quinolin-2(1H)-one], for which the EC50 amounted to 11 nM.

For `COCCCOc1cc2c(cc1OC)-c1[nH]c(=O)c(C(=O)NO)c(O)c1C(C(C)C)C2` (centres unmarked) [Example 66, N,4-Dihydroxy-5-isopropyl-9-methoxy-8-(3-methoxypropoxy)-2-oxo-1,2,5,6-tetrahydrobenzo[h]quinoline-3-carboxamide], the EC50 stood at 41 nM.

With `CNc1nc2c(cc1OCCCOC)CC(C(C)C)c1c-2[nH]c(=O)c(C(=O)O)c1O` (centres unmarked) [Example 53, 4-Hydroxy-5-isopropyl-8-(3-methoxypropoxy)-9-(methylamino)-2-oxo-1,2,5,6-tetrahydro-1,10-phenanthroline-3-carboxylic acid], the EC50 amounted to 15 nM.

`COCCCOc1cc2c(cc1Cl)-c1[nH]c(=O)c(C(=O)O)c(O)c1C(C)(C(C)C)C2` (centres unmarked) [Example 14, 9-Chloro-4-hydroxy-5-isopropyl-8-(3-methoxypropoxy)-5-methyl-2-oxo-1,2,5,6-tetrahydrobenzo[h]quinoline-3-carboxylic acid]: the EC50 came to 62 nM.

In the case of `COCCCOc1cc2c(nc1NCCOC)-c1[nH]c(=O)c(C(=O)O)c(O)c1C(C(C)C)C2` (centres unmarked) [Example 51, 4-Hydroxy-5-isopropyl-9-((2-methoxyethyl)amino)-8-(3-methoxypropoxy)-2-oxo-1,2,5,6-tetrahydro-1,10-phenanthroline-3-carboxylicacid], the EC50 stood at 10000 nM.

On to `COCCCOc1cc2c(nc1Cl)-c1c(cc(C(=O)O)c(=O)n1C)C(C(C)C)C2` (centres unmarked) [Example 25, 9-Chloro-5-isopropyl-8-(3-methoxypropoxy)-1-methyl-2-oxo-1,2,5,6-tetrahydro-1,10-phenanthroline-3-carboxylic acid], for which the EC50 was 94 nM.

Turning to `CCCc1nc2c(cc1OCCCOC)CC(C(C)C)c1c-2[nH]c(=O)c(C(=O)O)c1O` (centres unmarked) [Example 50, 4-Hydroxy-5-isopropyl-8-(3-methoxypropoxy)-2-oxo-9-propyl-1,2,5,6-tetrahydro-1,10-phenanthroline-3-carboxylic acid], the EC50 stood at 2 nM.

Take `COCCCOc1cc2c(nc1Cl)-c1[nH]c(=O)c(C(=O)O)c(O)c1C(C(C)C)C2` (centres unmarked) [Example 26, 9-Chloro-4-hydroxy-5-isopropyl-8-(3-methoxypropoxy)-2-oxo-1,2,5,6-tetrahydro-1,10-phenanthroline-3-carboxylic acid]: the EC50 worked out at 3 nM.

The test is the same for the next values; noted with them: read-out: sAg EC50; HepG2.2.15 cells; supernatant collected at day 6 after exposure; HBsAg chemiluminescence immunoassay.
`COCCCOc1cc2c(cc1Cl)-c1[nH]c(=O)c(C(=O)O)c(O)c1C(C)(C(C)C)C2` (single isomer, unassigned) [Example 16, 9-Chloro-4-hydroxy-5-isopropyl-8-(3-methoxypropoxy)-5-methyl-2-oxo-1,2,5,6-tetrahydrobenzo[h]quinoline-3-carboxylic acid]: the 50% effective concentration (EC50) came to 2000 nM.

For `CCOc1nc2c(cc1OCCCOC)CC(C(C)C)c1c-2[nH]c(=O)c(C(=O)O)c1O` (single isomer, unassigned) [Example 40, 9-Ethoxy-4-hydroxy-5-isopropyl-8-(3-methoxypropoxy)-2-oxo-1,2,5,6-tetrahydro-1,10-phenanthroline-3-carboxylic acid], the EC50 was 87 nM.

In the case of `COCCCOc1cc2c(nc1OC)-c1[nH]c(=O)c(C(N)=O)c(O)c1C(C(C)(C)C)C2` (single isomer, unassigned) [Example 60, 5-(tert-Butyl)-4-hydroxy-9-methoxy-8-(3-methoxypropoxy)-2-oxo-1,2,5,6-tetrahydro-1,10-phenanthroline-3-carboxamide], the EC50 was found to be 2 nM.

Turning to `COCCCOc1cc2c(cc1OC)-c1[nH]c(=O)c(C(=O)O)c(O)c1C(C)(C(C)C)C2` (single isomer, unassigned) [Example 32, 4-Hydroxy-5-isopropyl-9-methoxy-8-(3-methoxypropoxy)-5-methyl-2-oxo-1,2,5,6-tetrahydrobenzo[h]quinoline-3-carboxylic acid], the EC50 was determined as 10000 nM.
